# Laboratory results as given in patent US9493468B2, “Antifungal 5,6-dihydro-4H-pyrrolo[1,2-a][1,4]benzo-diazepines and 6H-pyrrolo[1,2-a][1,4]benzodiazepines substituted with heterocyclic derivatives” (Janssen Pharmaceutica NV, priority 2011, dated 2016).
# Experiments:
# Format in all cases: cell-based
# [1] = tested on: Microsporum canis; test: Antifungal activity in vitro, resazurin growth inhibition: Microsporum canis (B68128)
# Protocol: (§1) The standard susceptibility screen is performed in 96-well plates (U-bottom, Greiner Bio-One). Serial dilutions (2-fold or 4-fold) of 20 mM compound stock solutions are made in 100% DMSO, followed by an intermediate dilution step in water. These serial dilutions (10 μl) are then spotted onto test-plates that can be stored in the dark at 4° C. for a maximum period of 2 weeks. An adequate broad dose-range is included with 64 μM as the highest in-test concentration. The culture medium RPMI-1640 is supplemented with L-glutamine, 2% glucose and buffered with 3-(N-morpholino)-propanesulfonic acid (MOPS) at pH 7.0±0.1.
# (§2) The different fungal species/isolates (Table 3a) are cryopreserved and 1/1000 diluted in medium just prior to use. A standard inoculum of 200 μl containing 10^3 colony-forming unit (cfu) is then added to each well. A positive control (100% growth=fungal culture without antifungal) and a negative control (0% growth ═RPMI-MOPS medium) are included on each plate. Optimal incubation time and temperature are dependent on the fungal species and vary from 24 h for yeasts (37° C.) to one week or more for dermatophytes (27° C.). Inhibition of fungal growth is measured after adding 10 μl of 0.005% (w/v) resazurin (Sigma Aldrich) to each well, based on the principle that living cells convert the non-fluorescent blue resazurin into the pink and fluorescent resorufin, allowing fluorimetric reading (λex 550 nm and λem 590 nm) after an additional incubation period (‘resa’ time mentioned in Table 3a).
# [2] = tested on: Trichophyton mentagrophytes; test: Antifungal activity in vitro, resazurin growth inhibition: Trichophyton mentagrophytes (B70554)
# Protocol: as §1, §2
# [3] = tested on: Trichophyton rubrum; test: Antifungal activity in vitro, resazurin growth inhibition: Trichophyton rubrum (B68183)
# Protocol: as §1, §2
# [4] = tested on: Sporothrix schenkii; test: Antifungal activity in vitro, resazurin growth inhibition: Sporothrix schenkii (B62482)
# Protocol: as §1, §2
# [5] = tested on: Aspergillus fumigatus; test: Antifungal activity in vitro, resazurin growth inhibition: Aspergillus fumigatus (B42928)
# Protocol: as §1, §2
# [6] = tested on: Candida parapsilosis; test: Antifungal activity in vitro, resazurin growth inhibition: Candida parapsilosis (B66126)
# Protocol: as §1, §2
# [7] = tested on: Cryptococcus neoformans; test: Antifungal activity in vitro, resazurin growth inhibition: Cryptococcus neoformans (B66663)
# Protocol: as §1, §2
SMILES,"Inf. B: Microsporum canis B68128, pIC50 [1]","Inf. G: Trichophyton mentagrophytes B70554, pIC50 [2]","Inf. C: Trichophyton rubrum B68183, pIC50 [3]","Inf. A: Sporothrix schenkii B62482, pIC50 [4]","Inf. E: Aspergillus fumigatus B42928, pIC50 [5]","Inf. D: Candida parapsilosis B66126, pIC50 [6]","Inf. F: Cryptococcus neoformans B66663, pIC50 [7]"
Cl.FC(F)(F)c1ccc(C2NCc3ccccc3-n3cccc32)cn1 (racemic) [Compound 15],4.25,4.56,4.70,<4.19,<4.19,<4.19,4.92
CCc1csc(C2=NCc3c(Cl)cccc3-n3cccc32)n1 [Compound 68],4.91,4.80,5.58,<4.19,<4.19,<4.19,4.38
COc1cccc2cc(C3=NCc4c(Cl)cc(Cl)cc4-n4cccc43)oc12 [Compound 145],4.81,<4.19,5.11,<4.19,<4.19,<4.19,<4.19
CC(C)n1ccc(C2=NCc3cccc(Cl)c3-n3cccc32)cc1=O [Compound 71],5.83,5.78,5.55,5.42,<4.19,<4.19,5.00
CCc1nc(C2=NCc3c(Cl)cc(Cl)cc3-n3cccc32)cs1 [Compound 65],4.72,5.48,5.19,4.56,<4.19,<4.19,5.06
Clc1cccc2c1CNC(c1ccccn1)c1cccn1-2 (racemic) [Compound 11],4.73,4.72,4.71,4.49,4.31,<4.19,4.93
Br.Clc1ccc2c(c1)-n1cccc1C(c1ccncc1)NC2 (racemic) [Compound 23],4.72,4.39,5.00,<4.19,<4.19,<4.19,4.57
Cc1cccc2oc(C3NCc4ccc(Cl)cc4-n4cccc43)cc12.Cl (racemic) [Compound 37],4.38,4.41,5.31,<4.19,<4.19,<4.19,5.39
COc1cccc2cc(C3=NCc4ccc(Cl)cc4-n4cccc43)oc12 [Compound 142],<4.19,<4.19,5.64,<4.19,<4.19,<4.19,<4.19
Cc1cccc2c1-n1cccc1C(c1cc3ccccc3o1)NC2.Cl (racemic) [Compound 33],5.22,4.98,4.49,<4.19,<4.19,<4.19,4.38
Cc1ccc2cc(C3=NCc4c(F)cccc4-n4cccc43)ccc2n1 [Compound 113],<4.19,<4.19,5.86,<4.19,<4.19,<4.19,<4.19
Cl.Clc1cccc2c1CN=C(c1nc3ccccc3s1)c1cccn1-2 [Compound 181],5.69,4.98,5.94,<4.19,<4.19,<4.19,<4.19
Cc1ccc2cc(C3=NCc4c(Cl)cc(Cl)cc4-n4cccc43)oc2c1 [Compound 139],4.46,<4.19,4.40,<4.19,<4.19,<4.19,<4.19
Cl.Clc1cccc2c1CNC(c1cc3ccccc3s1)c1cccn1-2 (racemic) [Compound 53],5.70,5.70,6.10,4.92,5.40,<4.19,5.70
Fc1cccc2c1CN=C(c1cnc(Cl)c(Cl)c1)c1cccn1-2 [Compound 80],5.09,5.23,5.79,5.42,5.59,<4.19,<4.19
Br.Clc1cccc2c1CNC(c1ccncc1)c1cccn1-2 (racemic) [Compound 21],5.04,,5.52,4.70,<4.19,<4.19,4.66
Br.Clc1ccc2c(c1)CNC(c1ccncc1)c1cccn1-2 (racemic) [Compound 22],5.22,,5.10,<4.19,<4.19,<4.19,4.32
Clc1cccc2c1CN=C(c1ccc3nc[nH]c3c1)c1cccn1-2 [Compound 205],,<4,<4,<4,<4,<4,<4
